According to patent US10202332B2, “Method for preparing 2-amino-N-(2,2,2-trifluoroethyl) acetamide” (E. I. du Pont de Nemours and Company, priority 2010, dated 2019):

Assay: Stability comparison for free base and salts: weight gain or loss on exposure to air in the laboratory
Format: physicochemical
Settings: for hygroscopicity (in words): handling, exposure to air
Experimental: To further characterize the stability of the free amine and salts of 2-amino-N-(2,2,2-trifluoroethyl)acetamide the following experiments were performed. Samples of the free amine and salts were exposed to air in the laboratory for a period of time. Weight […] or loss compared to the original sample was determined

Question: Which “weight gain upon exposure to the ambient atmosphere (in words)” value does the source give for Cl.NCC(=O)NCC(F)(F)F [Hydrochloride, 2-amino-N-(2,2,2-trifluoroethyl)acetamide hydrochloride] here?
Answer: Its value is “did not”.

Question: What about the “hygroscopicity (in words)” value of the same compound?
Answer: Its value is “not hygroscopic”.

Question: For NCC(=O)NCC(F)(F)F [Free base, 2-amino-N-(2,2,2-trifluoroethyl)acetamide], which “sensitivity to air (in words)” value is on record?
Answer: Its value is “sensitive to air”.

Question: And the “% Weight gain (loss)” value (3 days in ambient atmosphere, parentheses = loss)?
Answer: The value was 4.65%.

Question: And the “weight gain upon exposure to the ambient atmosphere (in words)” value?
Answer: Its value is “showed weight gain”.

Question: And the “hygroscopicity (in words)” value?
Answer: The value was “hygroscopic”.
